This is an account of results in patent US7977360B2, “Benzo[d]isoxazol-3-yl-amine compounds and their use as vanilloid receptor ligands” (Gruenenthal GmbH, priority 2005, dated 2011).

The experiment concerns the target T1, vanilloid receptor 1 (VR1/TRPV1 receptor) (Rattus norvegicus, UniProt O35433).
T1 construct: endogenous in cells; host or cells: primary cultured dorsal root ganglion cells from rats
In words: Functional study on vanilloid receptor 1 (VR1/TRPV1), FLIPR Ca2+ inflow assay in rat dorsal root ganglia cells (method I). To be noted: compound 10 μM, rat DRG cells; for inhibition at 10 µM: then 100 nM capsaicin after 5 min, per method % inhibition vs maximum achievable inhibition with 10 μM capsaicin, read-out: rVR1 [10 μM] inhibition; for rVR1 [10 μM] stimulation: per method % activation in relation to the Ca2+ signal after 10 μM capsaicin. The class given is cell-based. The text has this: I. Functional Study on Vanilloid Receptor 1 (VR1/TRPV1 Receptor)
The agonistic or antagonistic effect of the substances to be studied on vanilloid receptor 1 (VR1/TRPV1) of the rat species can be determined with the following assay. According to this assay, the Ca^2+ inflow through the receptor canal is quantified with the help of a Ca^2+-sensitive dye (type Fluo-4, Molecular Probes Europe BV, Leiden Netherlands) in the Fluorescent Imaging Plate Reader (FLIPR, Molecular Devices, Sunnyvale, USA).
Complete medium: 50 mL HAMS F12 Nutrient Mixture (Gibco Invitrogen GmbH, Karlsruhe, Germany) with • 10% by vol. FCS (fetal calf serum, Gibco Invitrogen GmbH, Karlsruhe, Germany, heat-inactivated); • 2 mM L-glutamine (Sigma, Munich, Germany); • 1% by weight AA solution (antibiotic/antimycotic solution, PAA, Pasching, Austria) and 25 ng/ml medium NGF (2.5 S, Gibco Invitrogen GmbH, Karlsruhe, Germany)
Cell culture plate: Poly-D-Lysin-coated, 96 well black/clear plates (BD Biosciences, Heidelberg, Germany) are additionally coated with laminin (Gibco Invitrogen GmbH, Karlsruhe, Germany) by diluting laminin to a concentration of […] with PBS (Ca—Mg-free PBS, Gibco Invitrogen GmbH, Karlsruhe, Germany). Aliquots with a concentration of 100 μg/mL of laminin are removed and stored at −20° C. The aliquots are diluted with PBS in a ratio of 1:10 to 10 μg/mL of laminin and respectively 50 μL of the solution is pipetted into a recess of the cell culture plate. Die cell culture plates are incubated for at least two hours at 37° C., the remaining solutions is filtered off by suction and the recesses are each washed twice with PBS. The coated cell culture plates are stored with the remaining PBS and this is only removed directly before the addition of the cells.
The spinal column is removed from decapitated rats and this is placed directly in a cold HBSS buffer (Hank's buffered saline solution, Gibco Invitrogen GmbH, Karlsruhe, Germany), located in an ice bath, to which is added 1% by vol. (percent by volume) of an AA solution (antibiotic/antimycotic solution, PM, Pasching, Austria). The spinal column is divided longitudinally and removed from the vertebral canal together with fascia. The dorsal root ganglia (DRGs) are subsequently removed and in turn stored in cold HBSS buffer to which is added 1% by vol. of an AA solution. The DRGs which have been made completely free of blood residues and spinal nerves are transported in each case into 500 μL cold collagenase type 2 (PAA, Pasching, Austria) and incubated for 35 minutes at 37° C. […]
The DRGs are each multiply suspended, drawn by means of a syringe through cannulas no. […] The resultant pellet is respectively received in 250 μL complete medium and the cell number determined. […]

T1 sequence (O35433 whole entry): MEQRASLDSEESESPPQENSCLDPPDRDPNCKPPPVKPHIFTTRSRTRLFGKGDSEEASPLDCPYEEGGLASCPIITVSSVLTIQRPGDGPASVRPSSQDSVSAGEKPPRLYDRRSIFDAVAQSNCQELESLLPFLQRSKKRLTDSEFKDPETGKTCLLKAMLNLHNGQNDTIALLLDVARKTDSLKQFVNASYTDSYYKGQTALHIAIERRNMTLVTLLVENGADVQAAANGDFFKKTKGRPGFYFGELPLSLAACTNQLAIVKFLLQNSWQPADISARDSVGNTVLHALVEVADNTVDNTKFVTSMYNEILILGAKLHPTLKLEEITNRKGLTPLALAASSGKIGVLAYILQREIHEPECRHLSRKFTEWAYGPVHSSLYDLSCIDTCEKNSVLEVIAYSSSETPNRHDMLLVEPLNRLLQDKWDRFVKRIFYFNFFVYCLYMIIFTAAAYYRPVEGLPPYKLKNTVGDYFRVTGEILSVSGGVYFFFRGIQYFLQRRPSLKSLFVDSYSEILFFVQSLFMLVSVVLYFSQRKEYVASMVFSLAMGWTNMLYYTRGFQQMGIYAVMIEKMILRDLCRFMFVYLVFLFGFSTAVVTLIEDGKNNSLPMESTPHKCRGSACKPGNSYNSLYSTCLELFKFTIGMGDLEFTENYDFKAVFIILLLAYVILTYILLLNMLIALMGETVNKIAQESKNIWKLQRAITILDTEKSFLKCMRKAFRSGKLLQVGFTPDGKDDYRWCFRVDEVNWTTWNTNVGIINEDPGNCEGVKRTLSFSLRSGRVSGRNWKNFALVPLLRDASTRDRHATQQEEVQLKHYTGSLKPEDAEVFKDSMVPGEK

One may read the inhibition as the share of the control response that was lost under treatment. In the case of `Cc1cccnc1-c1ccc2c(NCc3ccc(C(C)(C)C)cc3)noc2c1` [Compound 10, (4-tert-butyl-benzyl)-[6-(3-methyl-pyridine-2-yl)-benzo[d]isoxazol-3-yl]-amine], the inhibition at 10 µM was 99% and the rVR1 [10 μM] stimulation worked out at 29%.

Consider `CC(C)(C)c1ccc(CNc2noc3cc(-c4ccccn4)ccc23)cc1` [Compound 9, (4-tert-butyl-benzyl)-(6-pyridine-2-yl-benzo[d]isoxazol-3-yl)-amine], for which the inhibition at 10 µM was 65% and the rVR1 [10 μM] stimulation is 0%.
